Measurements from PMC5839340 (Biochemistry, 2018).

How the values were obtained:
[1] = biological target: Hsc70 (Mus musculus, UniProt P63017); assay: DRaCALA with [α-32P]ATP; assay type: binding
[2] = biological target: Hsc70 C17W (Mus musculus, UniProt P63017, C17W); assay: DRaCALA with [α-32P]ATP; assay type: binding
Hsc70 C17W, sequence (P63017 5-554 C17W): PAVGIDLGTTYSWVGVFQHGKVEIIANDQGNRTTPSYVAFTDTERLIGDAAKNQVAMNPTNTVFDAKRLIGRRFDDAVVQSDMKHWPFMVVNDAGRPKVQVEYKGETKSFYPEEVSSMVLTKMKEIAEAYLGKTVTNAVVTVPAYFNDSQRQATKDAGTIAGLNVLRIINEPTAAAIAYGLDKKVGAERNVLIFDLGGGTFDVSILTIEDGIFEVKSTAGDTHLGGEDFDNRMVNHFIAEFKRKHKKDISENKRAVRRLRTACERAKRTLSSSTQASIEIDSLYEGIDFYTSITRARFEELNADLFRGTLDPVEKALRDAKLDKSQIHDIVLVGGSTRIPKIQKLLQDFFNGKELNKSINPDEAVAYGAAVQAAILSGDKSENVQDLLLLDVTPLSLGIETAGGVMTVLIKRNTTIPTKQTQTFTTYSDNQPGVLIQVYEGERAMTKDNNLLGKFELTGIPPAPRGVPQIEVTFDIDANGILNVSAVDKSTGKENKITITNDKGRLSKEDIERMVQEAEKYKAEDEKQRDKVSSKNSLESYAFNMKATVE

Hsc70, sequence (P63017 5-554): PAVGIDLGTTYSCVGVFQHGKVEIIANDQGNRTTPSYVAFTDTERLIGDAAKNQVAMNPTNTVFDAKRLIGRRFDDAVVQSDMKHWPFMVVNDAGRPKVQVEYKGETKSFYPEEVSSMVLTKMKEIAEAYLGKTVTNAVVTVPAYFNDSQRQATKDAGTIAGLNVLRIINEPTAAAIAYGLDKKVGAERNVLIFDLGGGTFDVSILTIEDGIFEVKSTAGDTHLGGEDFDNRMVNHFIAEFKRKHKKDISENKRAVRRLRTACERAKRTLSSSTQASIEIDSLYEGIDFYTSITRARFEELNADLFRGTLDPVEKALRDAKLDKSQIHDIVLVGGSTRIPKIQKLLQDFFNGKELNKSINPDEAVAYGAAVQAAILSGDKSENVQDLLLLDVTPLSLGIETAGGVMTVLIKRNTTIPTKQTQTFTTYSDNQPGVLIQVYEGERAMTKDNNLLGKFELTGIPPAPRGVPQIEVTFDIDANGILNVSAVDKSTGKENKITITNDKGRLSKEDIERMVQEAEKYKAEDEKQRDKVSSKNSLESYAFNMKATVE

SMILES: Nc1ncnc2c1ncn2[C@@H]1O[C@H](COP(=O)(O)OP(=O)(O)OP(=O)(O)O)[C@@H](O)[C@H]1O [ATP]
- Kd [1]: 210 ± 40 nM
- Kd [2]: 160 ± 60 nM
